Results from the RepoRT retention time repository (doi:10.1016/j.foodchem.2021.129757).

Tests used:
Details in all cases: stereoisomer not certain
[1] = RP, Phenomenex Synergi Hydro-RP, 150 × 2 mm, 4 µm, 30 °C, 0.5 mL/min, estimated dead time 0.6 min; A: water + 0.1% formic acid, pH 3; B: acetonitrile + 0.1% formic acid, pH 3; gradient (min/%B) 0/5 1/5 35/45 40/100 45/100
[2] = RP, Phenomenex Luna Omega Polar C18, 100 × 2.1 mm, 1.6 µm, 40 °C, 0.5 mL/min, estimated dead time 0.44 min; A: water + 0.1% formic acid + 10 mM ammonium formate; B: acetonitrile; gradient (min/%B) 0/5 8/20 10/100 12/100 12.1/5 14/5
[3] = RP, 50 × 0.5 mm, 2.7 µm, 35 °C, 0.01 mL/min, estimated dead time 0.62 min; A: water + 0.1% formic acid, pH 3; B: acetonitrile + 0.1% formic acid, pH 3; gradient (min/%B) 0/5 12/95 14/95 16/5
[4] = RP, Waters ACQUITY UPLC BEH Shield RP18, 100 × 2.1 mm, 1.7 µm, 30 °C, 0.6 mL/min, estimated dead time 0.37 min; A: water + 0.1% formic acid, pH 3; B: acetonitrile + 0.1% formic acid, pH 3; gradient (min/%B) 0/0 2/0 7/10 22/95 22.1/0 26/0
[5] = RP, Waters ACQUITY UPLC BEH Shield RP18, 150 × 2.1 mm, 1.7 µm, 40 °C, 0.4 mL/min, estimated dead time 0.83 min; A: water + 0.1% formic acid, pH 3; B: acetonitrile + 0.1% formic acid, pH 3; gradient (min/%B) 0/0 30/50 31/100 37/100 37.1/0
[6] = RP, 100 × 0.5 mm, 2.7 µm, 45 °C, 0.015 mL/min, estimated dead time 0.83 min; A: water + 0.9% formic acid; B: acetonitrile + 0.9% formic acid; gradient (min/%B) 0/1 0.5/1 4/95 4.5/1 5/1
[7] = RP, Phenomenex Synergi Hydro-RP, 250 × 2 mm, 4 µm, 25 °C, 0.2 mL/min, estimated dead time 2.5 min; A: water + 0.1% formic acid, pH 3; B: acetonitrile + 0.1% formic acid, pH 3; gradient (min/%B) 0/0.5 7/0.5 12/12.5 25/16.3 47/35 48/65 50/65 50.1/0.5
[8] = RP, Agilent ZORBAX Eclipse XDB-C18, 100 × 2.1 mm, 1.8 µm, 50 °C, 0.4 mL/min, estimated dead time 0.55 min; A: water + 0.1% formic acid, pH 3; B: methanol + 0.1% formic acid, pH 3; gradient (min/%B) 0/2 10/100 14.5/100 14.51/2 16.5/2
[9] = RP, Phenomenex Luna Omega Polar C18, 100 × 2.1 mm, 1.6 µm, 40 °C, 0.5 mL/min, estimated dead time 0.44 min; A: water + 0.5% formic acid; B: acetonitrile + 0.5% formic acid; gradient (min/%B) 0/5 3/50 3.1/100 5/100 5.1/5 7/5
[10] = RP, Agilent InfinityLab Poroshell 120 EC-C18, 100 × 3 mm, 2.7 µm, 25 °C, 0.4 mL/min, estimated dead time 1.1 min; A: water + 0.1% formic acid, pH 3; B: acetonitrile + 0.1% formic acid, pH 3; gradient (min/%B) 0/5 10/25 20/40 24/90 25/90 26/5 30/5
[11] = RP, 150 × 2.1 mm, 2.6 µm, 40 °C, 0.35 mL/min, estimated dead time 0.94 min; A: water + 0.1% formic acid, pH 3; B: acetonitrile + 0.1% formic acid, pH 3; gradient (min/%B) 0/0 1/0 12.5/100 14/100 14.2/0 15/0
[12] = RP, Phenomenex Luna C18, 150 × 4.6 mm, 3 µm, 25 °C, 0.5 mL/min, estimated dead time 3.2 min; A: water + 0.1% formic acid, pH 3; B: acetonitrile + 0.1% formic acid, pH 3; gradient (min/%B) 0/0 30/30 35/40 50/80 52/80 60/0 65/0
[13] = RP, 150 × 2.1 mm, 2.6 µm, 40 °C, 0.35 mL/min, estimated dead time 0.94 min; A: water + 0.1% formic acid, pH 3; B: acetonitrile + 0.1% formic acid, pH 3; gradient (min/%B) 0/0 1/5 7/45 8.5/80 10.5/80 11/5 12/5
[14] = RP, Waters ACQUITY UPLC BEH C18, 100 × 2.1 mm, 1.7 µm, 65 °C, 0.4 mL/min, estimated dead time 0.55 min; A: water + 0.1% formic acid, pH 3; B: 80% acetonitrile + 20% acetone + 0.1% formic acid, pH 3; gradient (min/%B) 0/0 5/100 5.5/0 6/0
[15] = RP, Waters ACQUITY UPLC HSS T3, 100 × 2.1 mm, 1.8 µm, 30 °C, 0.4 mL/min, estimated dead time 0.55 min; A: water + 0.1% formic acid, pH 3; B: acetonitrile + 0.1% formic acid, pH 3; gradient (min/%B) 0/0 2/0 15/100 22/100 22.1/0 26/0
[16] = RP, Waters Atlantis T3, 100 × 2.1 mm, 3 µm, 40 °C, 0.3 mL/min, estimated dead time 0.73 min; A: water + 0.1% trifluoroacetic acid, pH 2; B: acetonitrile + 0.1% trifluoroacetic acid, pH 2; gradient (min/%B) 0/10 1/10 6/40 7/50 8/50 14/70 16/80 20/10 25/10
[17] = RP, Agilent ZORBAX RRHD Eclipse Plus C18, 50 × 2.1 mm, 1.8 µm, 30 °C, 0.4 mL/min, estimated dead time 0.28 min; A: water + 0.1% formic acid, pH 3; B: acetonitrile + 0.1% formic acid, pH 3; gradient (min/%B) 0/1 5/10 8/25 9.1/99 10/99 12/99
[18] = RP, Agilent ZORBAX RRHD Eclipse Plus C18, 50 × 2.1 mm, 1.8 µm, 30 °C, 0.4 mL/min, estimated dead time 0.28 min; A: water + 0.1% formic acid, pH 3; B: acetonitrile + 0.1% formic acid, pH 3; gradient (min/%B) 0/1 5/10 8/25 9.1/99 10/99 12/1

O=C(O)Cc1ccc(O)cc1 [4-Hydroxyphenylacetic acid]
LC retention time [1]: 11.9 min
LC retention time [2]: 3.36 min
LC retention time [3]: 2.53 min
LC retention time [4]: 7.43 min
LC retention time [5]: 5.41 min
LC retention time [6]: 2.71 min
LC retention time [7]: 20.4 min
LC retention time [8]: 3.26 min
LC retention time [9]: 1.15 min
LC retention time [10]: 6.13 min
LC retention time [11]: 4.61 min
LC retention time [12]: 14.7 min
LC retention time [13]: 4.34 min
LC retention time [14]: 1.76 min
LC retention time [15]: 8.37 min

O=c1cc(-c2ccc(O)cc2)oc2cc(OC3OC(CO)C(O)C(O)C3O)cc(O)c12 (configuration not stated) [Apigenin 7-O-glucoside]
LC retention time [1]: 17.9 min
LC retention time [2]: 9.12 min
LC retention time [3]: 4.87 min
LC retention time [4]: 13.5 min
LC retention time [5]: 14.3 min
LC retention time [6]: 2.89 min
LC retention time [8]: 5.5 min
LC retention time [9]: 2.6 min
LC retention time [10]: 10.7 min
LC retention time [11]: 6.07 min
LC retention time [12]: 27.6 min
LC retention time [16]: 7.96 min
LC retention time [13]: 6.23 min
LC retention time [15]: 9.6 min

O=c1ccc2c(O)c3ccoc3cc2o1 [Bergaptol]
LC retention time [1]: 21.6 min
LC retention time [2]: 9.43 min
LC retention time [3]: 5.42 min
LC retention time [4]: 14.7 min
LC retention time [5]: 17.9 min
LC retention time [6]: 3.08 min
LC retention time [8]: 6.04 min
LC retention time [9]: 3.25 min
LC retention time [10]: 13.9 min
LC retention time [12]: 37.6 min
LC retention time [15]: 11 min

COc1cc(C=CC(=O)CC(=O)C=Cc2ccc(O)c(OC)c2)ccc1O [Curcumin]
LC retention time [1]: 37.7 min
LC retention time [2]: 10.1 min
LC retention time [3]: 7.99 min
LC retention time [4]: 18.2 min
LC retention time [5]: 13 min
LC retention time [6]: 3.75 min
LC retention time [8]: 8.13 min
LC retention time [9]: 3.84 min
LC retention time [10]: 22.9 min
LC retention time [12]: 48.7 min
LC retention time [15]: 13.6 min

O=C(O)CCc1ccc(O)c(O)c1 [Dihydrocaffeic acid]
LC retention time [1]: 14.6 min
LC retention time [2]: 3.46 min
LC retention time [3]: 2.6 min
LC retention time [4]: 8.08 min
LC retention time [5]: 5.6 min
LC retention time [6]: 2.4 min
LC retention time [17]: 2.11 min
LC retention time [7]: 20.1 min
LC retention time [18]: 5.05 min
LC retention time [8]: 3.33 min
LC retention time [9]: 2.6 min
LC retention time [10]: 6.04 min
LC retention time [12]: 14.2 min
LC retention time [14]: 1.69 min
LC retention time [15]: 8.3 min

COc1ccc(C2CC(=O)c3c(O)cc(O)cc3O2)cc1O (configuration not stated) [Hesperetin]
LC retention time [1]: 26.6 min
LC retention time [2]: 9.67 min
LC retention time [3]: 6.17 min
LC retention time [4]: 15.5 min
LC retention time [5]: 21.2 min
LC retention time [6]: 3.27 min
LC retention time [17]: 9.29 min
LC retention time [7]: 51.9 min
LC retention time [8]: 6.64 min
LC retention time [9]: 3.57 min
LC retention time [10]: 17.4 min
LC retention time [11]: 7.8 min
LC retention time [12]: 42.5 min
LC retention time [16]: 10.4 min
LC retention time [13]: 8.21 min
LC retention time [14]: 2.93 min
LC retention time [15]: 11.7 min

O=C(O)C1OC(Oc2c(-c3ccc(O)cc3)oc3cc(O)cc(O)c3c2=O)C(O)C(O)C1O (configuration not stated) [Kaempferol-3-O-glucuronide]
LC retention time [1]: 17.4 min
LC retention time [2]: 8.58 min
LC retention time [3]: 4.81 min
LC retention time [4]: 13.7 min
LC retention time [5]: 15.2 min
LC retention time [6]: 2.39 min
LC retention time [17]: 8.79 min
LC retention time [18]: 8.37 min
LC retention time [8]: 5.52 min
LC retention time [9]: 2.53 min
LC retention time [10]: 10.5 min
LC retention time [12]: 27.4 min
LC retention time [15]: 9.51 min

O=C(O)CCc1ccc(O)cc1 [Phloretic acid]
LC retention time [1]: 11.7 min
LC retention time [2]: 5.01 min
LC retention time [3]: 3.41 min
LC retention time [4]: 10.4 min
LC retention time [5]: 6.46 min
LC retention time [6]: 2.32 min
LC retention time [17]: 6.26 min
LC retention time [7]: 26 min
LC retention time [18]: 6.75 min
LC retention time [8]: 4.09 min
LC retention time [9]: 2.19 min
LC retention time [10]: 7.93 min
LC retention time [12]: 19.9 min
LC retention time [14]: 2.09 min
LC retention time [15]: 9.17 min

Oc1cc(O)c2c(c1)OC1(c3ccc(O)c(O)c3)Oc3cc(O)c4c(c3C2C1O)OC(c1ccc(O)c(O)c1)C(O)C4 (configuration not stated) [Procyanidin A2]
LC retention time [1]: 16 min
LC retention time [2]: 8.12 min
LC retention time [3]: 4.38 min
LC retention time [4]: 13.1 min
LC retention time [6]: 2.53 min
LC retention time [18]: 8.05 min
LC retention time [8]: 4.3 min
LC retention time [9]: 2.41 min
LC retention time [10]: 9.7 min
LC retention time [12]: 24.4 min
LC retention time [15]: 9.38 min

O=S(=O)(O)Oc1c(O)cccc1O [Pyrogallol 2-O-sulfate]
LC retention time [2]: 1.61 min
LC retention time [3]: 1.4 min
LC retention time [5]: 7.61 min
LC retention time [6]: 2.2 min
LC retention time [17]: 1.34 min
LC retention time [18]: 2.36 min
LC retention time [8]: 1.76 min
LC retention time [9]: 1.49 min
LC retention time [10]: 3.99 min
LC retention time [12]: 18.4 min
LC retention time [15]: 6.13 min

O=c1oc2cc(O)ccc2c2ccccc12 [Urolithin B]
LC retention time [2]: 9.78 min
LC retention time [3]: 6.54 min
LC retention time [4]: 16 min
LC retention time [5]: 22.6 min
LC retention time [6]: 3.47 min
LC retention time [8]: 7.19 min
LC retention time [9]: 3.72 min
LC retention time [10]: 18.8 min
LC retention time [12]: 44.4 min
LC retention time [15]: 12.2 min

COc1ccc(C(=O)O)cc1OC [Veratric acid]
LC retention time [2]: 6.87 min
LC retention time [3]: 4.19 min
LC retention time [4]: 12 min
LC retention time [6]: 2.4 min
LC retention time [7]: 33 min
LC retention time [8]: 4.84 min
LC retention time [10]: 9.51 min
LC retention time [12]: 24.9 min
LC retention time [15]: 9.65 min
